This is an account of results in patent US8822517B2, “Arylosulfonamides for the treatment of CNS diseases” (Adamed SP. Z O.O., priority 2010, dated 2014).

The target in assay [1] is T1, serotonine transporter (SERT) receptor (Homo sapiens, UniProt P31645).
T1 construct: expressed in transfected cells; host or cells: CHO cells
The assay is described as follows: Binding assay SERT (h), [3H]imipramine, CHO cells. The conditions noted are these: read-out: SERT [%]. Here is the method:
(§1) The specific ligand binding to the receptors is defined as the difference between the total binding and the nonspecific binding determined in the presence of an excess of so unlabelled ligand.
(§2) The specific Ligand binding to the receptor is defined as the difference between total and non-specific binding determined in the presence of an excess of unlabelled ligand. The compounds were tested at a concentration of 1×10^−6 M, and scintillation counting was the method of detection of ligand binding.

Assay [2] has as its system adrenergic α1 receptor. The assay is described as follows: Binding assay α1 (non-selective), [3H]prazosin, rat cerebral cortex. Conditions: percent inhibition of control specific binding; compounds tested at 1×10^−6 M. Here is the method: as §1, §2
Assay [3] addresses dopaminergic D3 receptor (Homo sapiens, UniProt P35462). Put plainly: Binding assay D3 (h), [3H]methyl-spiperone, CHO cells. Further details: expressed in transfected cells; host or cells: CHO cells. Conditions: read-out: D3 [%]. As to the method:
as §1, §2

In assay [4] the target is serotoninergic 5-HT6 receptor (Homo sapiens, UniProt P50406). Put plainly: Binding assay 5-HT6 (h), [3H]LSD, CHO cells. Further details: expressed in transfected cells; host or cells: CHO cells. The conditions noted are these: read-out: 5-HT6. Here is the method:
as §1, §2

In assay [5] the target is serotoninergic 5-HT7 receptor (Homo sapiens, UniProt P34969). The assay is described as follows: Binding assay 5-HT7 (h), [3H]LSD, CHO cells. Conditions: read-out: 5-HT7. Also on record: expressed in transfected cells; host or cells: CHO cells. Here is the method: as §1, §2
Chain of serotoninergic 5-HT7 receptor (P34969 whole entry): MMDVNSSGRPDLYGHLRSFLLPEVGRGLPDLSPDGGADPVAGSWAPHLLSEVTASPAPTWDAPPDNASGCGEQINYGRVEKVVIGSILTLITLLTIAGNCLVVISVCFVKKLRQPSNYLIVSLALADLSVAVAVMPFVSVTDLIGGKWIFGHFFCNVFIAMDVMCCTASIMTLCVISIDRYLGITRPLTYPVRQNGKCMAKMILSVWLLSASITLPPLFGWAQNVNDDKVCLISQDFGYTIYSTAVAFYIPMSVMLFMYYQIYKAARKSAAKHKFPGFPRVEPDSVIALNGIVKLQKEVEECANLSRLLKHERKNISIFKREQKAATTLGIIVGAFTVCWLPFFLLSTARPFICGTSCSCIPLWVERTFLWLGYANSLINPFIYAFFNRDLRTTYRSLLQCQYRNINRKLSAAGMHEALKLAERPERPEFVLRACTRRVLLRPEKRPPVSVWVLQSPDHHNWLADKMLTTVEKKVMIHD
Assay [6] deals with dopaminergic D2 receptor (Homo sapiens, UniProt P14416). The assay is described as follows: Binding assay D2S (h), [3H]methyl-spiperone, HEK-293 cells. The conditions noted are these: read-out: D2 [%]. Further details: expressed in transfected cells; host or cells: HEK-293 cells. As to the method:
as §1, §2

Assay [7] concerns the target T2, serotoninergic 5-HT1A receptor (Homo sapiens, UniProt P08908).
T2 sequence (P08908 1-422): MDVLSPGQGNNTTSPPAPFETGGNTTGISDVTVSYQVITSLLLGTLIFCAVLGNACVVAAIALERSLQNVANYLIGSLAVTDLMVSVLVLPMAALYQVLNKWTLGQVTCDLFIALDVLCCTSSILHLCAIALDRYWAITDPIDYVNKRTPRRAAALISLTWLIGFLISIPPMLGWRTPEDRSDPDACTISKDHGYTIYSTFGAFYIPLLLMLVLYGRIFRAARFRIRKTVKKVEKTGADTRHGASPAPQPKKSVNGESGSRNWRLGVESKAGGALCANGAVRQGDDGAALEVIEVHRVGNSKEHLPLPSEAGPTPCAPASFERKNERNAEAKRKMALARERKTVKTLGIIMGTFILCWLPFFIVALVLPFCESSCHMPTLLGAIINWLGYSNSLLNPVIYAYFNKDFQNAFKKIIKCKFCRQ
Put plainly: Binding assay 5-HT1A (h), [3H]8-OH-DPAT, HEK-293 cells. Also on record: expressed in transfected cells; host or cells: HEK-293 cells. The conditions noted are these: read-out: 5-HT1A. As to the method:
as §1, §2

For assay [8], the target named is serotoninergic 5-HT2A receptor (Homo sapiens, UniProt P28223). Put plainly: Binding assay 5-HT2A (h), [3H]ketanserin, HEK-293 cells. Further details: expressed in transfected cells; host or cells: HEK-293 cells. Conditions: read-out: 5-HT2A. As to the method:
as §1, §2

Chain of serotoninergic 5-HT6 receptor (P50406 whole entry): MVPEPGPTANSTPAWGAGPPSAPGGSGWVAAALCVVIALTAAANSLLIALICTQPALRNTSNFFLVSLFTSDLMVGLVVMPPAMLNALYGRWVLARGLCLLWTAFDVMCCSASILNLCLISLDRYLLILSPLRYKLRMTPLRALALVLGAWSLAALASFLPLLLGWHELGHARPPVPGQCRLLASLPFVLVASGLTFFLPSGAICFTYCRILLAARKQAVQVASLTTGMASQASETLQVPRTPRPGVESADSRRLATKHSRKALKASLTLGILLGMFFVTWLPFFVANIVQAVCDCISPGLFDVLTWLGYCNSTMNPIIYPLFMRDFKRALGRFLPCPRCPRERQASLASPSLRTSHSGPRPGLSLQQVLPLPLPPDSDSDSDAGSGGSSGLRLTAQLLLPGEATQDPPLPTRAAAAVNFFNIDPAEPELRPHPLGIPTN
Chain of dopaminergic D3 receptor (P35462 whole entry): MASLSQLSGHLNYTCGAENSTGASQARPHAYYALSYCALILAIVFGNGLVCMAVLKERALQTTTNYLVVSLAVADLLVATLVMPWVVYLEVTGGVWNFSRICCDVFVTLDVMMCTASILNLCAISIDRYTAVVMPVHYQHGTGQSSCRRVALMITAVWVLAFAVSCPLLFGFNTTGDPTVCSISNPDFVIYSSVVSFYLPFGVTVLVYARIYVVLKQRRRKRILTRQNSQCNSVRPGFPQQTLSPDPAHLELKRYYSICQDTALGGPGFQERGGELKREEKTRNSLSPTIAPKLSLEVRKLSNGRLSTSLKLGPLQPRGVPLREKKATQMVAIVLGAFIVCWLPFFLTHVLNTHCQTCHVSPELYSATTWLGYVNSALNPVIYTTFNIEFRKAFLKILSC
T1 sequence (P31645 whole entry): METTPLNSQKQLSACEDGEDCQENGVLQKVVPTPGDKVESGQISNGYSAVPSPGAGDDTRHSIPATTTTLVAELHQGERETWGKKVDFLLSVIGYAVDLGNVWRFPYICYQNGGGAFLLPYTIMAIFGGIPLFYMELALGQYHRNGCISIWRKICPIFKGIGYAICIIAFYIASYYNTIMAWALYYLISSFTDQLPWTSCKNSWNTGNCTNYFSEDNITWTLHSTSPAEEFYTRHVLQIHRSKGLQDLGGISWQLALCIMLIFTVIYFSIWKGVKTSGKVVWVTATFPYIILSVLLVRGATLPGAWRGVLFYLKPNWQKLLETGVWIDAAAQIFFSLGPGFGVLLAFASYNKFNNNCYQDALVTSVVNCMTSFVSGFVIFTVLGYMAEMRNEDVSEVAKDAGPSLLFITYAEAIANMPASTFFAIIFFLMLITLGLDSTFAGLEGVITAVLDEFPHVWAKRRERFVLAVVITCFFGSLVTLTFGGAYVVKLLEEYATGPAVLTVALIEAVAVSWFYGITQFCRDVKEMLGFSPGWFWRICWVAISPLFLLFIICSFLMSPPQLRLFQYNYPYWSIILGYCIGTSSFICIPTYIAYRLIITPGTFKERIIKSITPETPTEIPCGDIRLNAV
Chain of dopaminergic D2 receptor (P14416 1-414 isoform P14416-2): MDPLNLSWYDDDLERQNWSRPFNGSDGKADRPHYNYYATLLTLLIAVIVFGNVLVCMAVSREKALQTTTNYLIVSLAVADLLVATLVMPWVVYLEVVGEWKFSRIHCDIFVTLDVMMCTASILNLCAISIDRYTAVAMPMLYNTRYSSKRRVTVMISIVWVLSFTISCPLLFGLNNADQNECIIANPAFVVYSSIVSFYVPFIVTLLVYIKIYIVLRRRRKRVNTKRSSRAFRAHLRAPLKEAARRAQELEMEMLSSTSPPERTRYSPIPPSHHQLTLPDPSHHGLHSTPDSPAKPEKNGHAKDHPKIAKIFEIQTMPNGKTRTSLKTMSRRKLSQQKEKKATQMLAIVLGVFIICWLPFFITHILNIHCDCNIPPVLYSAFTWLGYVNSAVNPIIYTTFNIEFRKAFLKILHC
Chain of serotoninergic 5-HT2A receptor (P28223 whole entry): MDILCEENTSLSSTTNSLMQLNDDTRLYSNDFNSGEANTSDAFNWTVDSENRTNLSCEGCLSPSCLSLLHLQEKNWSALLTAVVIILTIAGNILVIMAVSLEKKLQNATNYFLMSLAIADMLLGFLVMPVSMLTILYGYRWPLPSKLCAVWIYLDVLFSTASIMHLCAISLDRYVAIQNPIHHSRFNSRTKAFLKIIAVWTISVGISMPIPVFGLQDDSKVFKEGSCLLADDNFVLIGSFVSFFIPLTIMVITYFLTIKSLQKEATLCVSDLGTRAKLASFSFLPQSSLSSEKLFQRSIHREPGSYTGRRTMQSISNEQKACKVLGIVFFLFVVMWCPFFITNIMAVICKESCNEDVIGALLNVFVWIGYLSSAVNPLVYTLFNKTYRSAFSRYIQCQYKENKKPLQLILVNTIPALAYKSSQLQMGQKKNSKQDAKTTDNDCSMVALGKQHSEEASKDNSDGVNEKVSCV

Turning to `O=S(=O)(NCCCN1CCC(c2noc3cc(F)ccc23)CC1)c1cccs1` [Compound 339, N-[3-[4-(6-Fluoro-1,2-benzoxazol-3-yl)piperidin-1-yl]propyl]thiophene-2-sulphonamide], the inhibition at 1 µM in assay [1] came to 3%; in assay [3], 100%; in assay [4] it was 89%; in assay [5], 89%; in assay [6], 96%; in assay [7], 76%. In addition, the inhibition at 1 µM in assay [8] was found to be 82%. Further, in assay [2], the “α1 [%]” value worked out at 108%.

Turning to `Cc1[nH]c2ccc(Cl)cc2c1C1=CCN(CCNS(=O)(=O)c2ccc(F)cc2)CC1` [Compound 449, N-[2-[4-(5-Chloro-2-methyl-1H-indol-3-yl)-3,6-dihydro-2H-pyridin-1-yl]ethyl]-4-fluorobenzenesulphonamide], the inhibition at 1 µM in assay [1] is 21%; in assay [3], 34%; in assay [4], 93%; in assay [5], 81%; in assay [6] it was 31%; in assay [7], 57%. Also, the inhibition at 1 µM in assay [8] came to 76%. The “α1 [%]” value in assay [2] is on record as 12%.

Turning to `O=S(=O)(NCCCN1CCN(c2cccc3c2OCCO3)CC1)c1cccc(F)c1` [Compound 409, N-[3-[4-(2,3-Dihydro-1,4-benzodioxin-5-yl)piperazin-1-yl]propyl]-3-fluorobenzenesulphonamide], the inhibition at 1 µM in assay [1] was 2%; in assay [3] it was 85%; in assay [4], -9%; in assay [5] it was 91%; in assay [6], 79%; in assay [7], 81%. The inhibition at 1 µM in assay [8] was found to be 66%. Also, the “α1 [%]” value in assay [2] turned out to be 81%.

Take `O=S(=O)(NCCCCN1CCN(c2nsc3ccccc23)CC1)c1ccc(-c2ccccc2)cc1` [Compound 237, N-[4-[4-(1,2-Benzothiazol-3-yl)piperazin-1-yl]butyl]-4-phenylbenzenesulphonamide]: the inhibition at 1 µM in assay [1] was -7%; in assay [3], 85%; in assay [4], 89%; in assay [5], 64%; in assay [6], 62%; in assay [7] it was 51%. In assay [8], the inhibition at 1 µM was determined as 24%. Moreover, the “α1 [%]” value in assay [2] is reported as 87%.

Regarding `O=S(=O)(NCCCCN1CCN(c2noc3ccccc23)CC1)c1cccc(Cl)c1` [Compound 85, N-[4-[4-(1,2-Benzoxazol-3-yl)piperazin-1-yl]butyl]-3-chlorobenzenesulphonamide], the inhibition at 1 µM in assay [1] came to 2%; in assay [3] it was 77%; in assay [4] it was 77%; in assay [5], 99%; in assay [6], 100%; in assay [7], 54%. For the same compound, the inhibition at 1 µM in assay [8] was 88%. In addition, in assay [2], the “α1 [%]” value is recorded as 98%.

Consider `O=S(=O)(NCCCCN1CCN(c2cccc3c2OCCO3)CC1)c1ccc(Cl)s1` [Compound 398, 5-Chloro-N-[4-[4-(2,3-dihydro-1,4-benzodioxin-5-yl)piperazin-1-yl]butyl]thiophene-2-sulphonamide], for which the inhibition at 1 µM in assay [1] was -7%; in assay [3], 90%; in assay [4], 3%; in assay [5] it was 97%; in assay [6] it was 73%; in assay [7], 107%. In addition, the inhibition at 1 µM in assay [8] amounted to 38%. The “α1 [%]” value in assay [2] was found to be 97%.

For the compound `O=S(=O)(NCCCCN1CCC(c2noc3cc(F)ccc23)CC1)c1ccc(F)c(Cl)c1` [Compound 299, 3-Chloro-4-fluoro-N-[4-[4-(6-fluoro-1,2-benzoxazol-3-yl)piperidin-1-yl]butyl]benzenesulphonamide], the inhibition at 1 µM came out at 14% in assay [1]; 98% in assay [3]; 84% in assay [4]; 75% in assay [5]; 87% in assay [6]; 45% in assay [7]. Further, the inhibition at 1 µM in assay [8] stood at 89%. Further, the “α1 [%]” value in assay [2] came out at 98%.

Consider `O=S(=O)(NCCCN1CCN(c2cccc3c2OCCO3)CC1)c1ccc2ccccc2c1` [Compound 406, N-[3-[4-(2,3-Dihydro-1,4-benzodioxin-5-yl)piperazin-1-yl]propyl]naphthalene-2-sulphonamide], for which the inhibition at 1 µM came out at 10% in assay [1]; 54% in assay [3]; 54% in assay [4]; 92% in assay [5]; 59% in assay [6]; 99% in assay [7]. The inhibition at 1 µM in assay [8] worked out at 28%. Moreover, the “α1 [%]” value in assay [2] came out at 77%.

On to `O=S(=O)(NCCCCN1CCN(c2nsc3ccccc23)CC1)c1cccc(Br)c1` [Compound 230, N-[4-[4-(1,2-Benzothiazol-3-yl)piperazin-1-yl]butyl]-3-bromobenzenesulphonamide], for which the inhibition at 1 µM turned out to be 13% in assay [1]; 87% in assay [3]; 85% in assay [4]; 101% in assay [5]; 105% in assay [6]; 85% in assay [7]. Also, in assay [8], the inhibition at 1 µM was found to be 87%. In addition, the “α1 [%]” value in assay [2] came out at 98%.

Turning to `O=S(=O)(NCCCCN1CCN(c2cccc3c2OCCO3)CC1)c1ccc2c(c1)OCO2` [Compound 404, N-[4-[4-(2,3-Dihydro-1,4-benzodioxin-5-yl)piperazin-1-yl]butyl]-1,3-benzodioxole-5-sulphonamide], the inhibition at 1 µM in assay [1] is -9%; in assay [3], 92%; in assay [4] it was 4%; in assay [5] it was 96%; in assay [6], 60%; in assay [7] it was 97%. The inhibition at 1 µM in assay [8] came to 55%. The “α1 [%]” value in assay [2] was 93%.

Consider `O=S(=O)(NCCCN1CCN(c2cccc3c2OCCO3)CC1)c1cccc2ccccc12` [Compound 405, N-[3-[4-(2,3-Dihydro-1,4-benzodioxin-5-yl)piperazin-1-yl]propyl]naphthalene-1-sulphonamide], for which the inhibition at 1 µM is -5% in assay [1]; 62% in assay [3]; 53% in assay [4]; 93% in assay [5]; 68% in assay [6]; 97% in assay [7]. Further, the inhibition at 1 µM in assay [8] is 74%. Besides, the “α1 [%]” value in assay [2] is reported as 82%.

With `O=S(=O)(NCCCN1CCC(c2noc3cc(F)ccc23)CC1)c1cccc(F)c1` [Compound 108, 3-Fluoro-N-[3-[4-(6-fluoro-1,2-benzoxazol-3-yl)piperidin-1-yl]propyl]benzenesulphonamide], the inhibition at 1 µM was -9% in assay [1]; 98% in assay [3]; 86% in assay [4]; 90% in assay [5]; 106% in assay [6]; 48% in assay [7]. The inhibition at 1 µM in assay [8] amounted to 88%. Also, in assay [2], the “α1 [%]” value is 100%.
